Where two headings read alike, the source gives them in different places.
Columns and labels:
Format in all cases: biochemical
[1] = target: T1, human HDAC1 enzyme (Homo sapiens, UniProt Q13547); assay: Human HDAC1 enzyme assay (Class I HDACs)
T1 construct: purchased BPS Bioscience
Procedure: The inhibitory effect of compounds on HDAC1 activity was assessed in vitro using an optimised assay performed in black/flat black wall 384-well plate (Corning Inc.). All reagents and compounds were prepared in HDAC1 assay buffer (25 mM Tris-HCl, 137 mM NaCl, 2.7 mM KCl, 1 mM MgCl2·H2O and 0.1 mg/mL bovine serum albumin; pH 8). Various concentrations of inhibitor were pre-incubated with 50 ng/mL human HDAC1 enzyme (BPS Bioscience) for 30 min at room temperature on a plate shaker. Substrate (Leu(Ac)-Gly-Lys(Ac)-AMC, 12 μM) were then added and incubated for 90 min at 37° C. in the dark. The enzymatic reaction was then incubated with the developer solution (1 mg/mL trypsin and 25 μM SAHA) for 15-20 min at room temperature. Fluorescence intensity was measured using PHERAstar plate reader (BMG Labtech) at 350 nm excitation and 460 nm emission.
(§1) Data analysis: Triplicate measurements were made for each data point and error bars represent mean±SEM of three independent experiments. All data were plotted and analysed using GraphPad Prism Version 6.0d for Mac OS X (GraphPad Software). Dose Response Curves plotted using 4 parameters logistic model.

[2] = target: T2, human HDAC7 enzyme (Homo sapiens, UniProt Q8WUI4); assay: Human HDAC7 enzyme assay (Class IIa HDACs); details: Table 8; recombinant human HDAC7
T2 construct: purchased Reaction Biology Corp

[3] = target: T3, human HDAC6 enzyme (Homo sapiens, UniProt Q9UBN7); assay: Human HDAC6 enzyme assay (Class IIb HDACs); details: Table 9; recombinant human HDAC
T3 construct: purchased Cayman Chemical
Procedure: The inhibitory effect of compounds on HDAC6 activity was assessed in vitro using an optimised assay performed in black/flat black wall 384-well plate (Corning Inc.). All reagents and compounds were prepared in HDAC assay buffer (25 mM Tris-HCl, 137 mM NaCl, 2.7 mM KCl, 1 mM MgCl2·H2O and 0.1 mg/mL bovine serum albumin; pH 8). Various concentrations of inhibitor were pre-incubated with 100 ng/ml human HDAC6 enzyme (Cayman Chemical) for 15 min at room temperature on a plate shaker. Substrate (Boc-Lys(Ac)-AMC, 25 μM) were then added and incubated for 60 min at 37° C. in the dark. The enzymatic reaction was then incubated with the developer solution (1 mg/mL trypsin and 10 μM SAHA) for 15-20 min at room temperature. Fluorescence intensity was measured using PHERAstar plate reader (BMG Labtech) at 350 nm excitation and 460 nm emission.
as §1

[4] = target: HDAC4 (Homo sapiens, UniProt P56524); assay: Isoform selectivity, HDAC4 inhibition; details: Table 9; recombinant human HDAC; read-out: IC50, Class IIa HDAC4
[5] = target: HDAC5 (Homo sapiens, UniProt Q9UQL6); assay: Isoform selectivity, HDAC5 inhibition; details: Table 9; recombinant human HDAC; read-out: IC50, Class IIa HDAC5
[6] = target: HDAC9 (Homo sapiens, UniProt Q9UKV0); assay: Isoform selectivity, HDAC9 inhibition; details: Table 9; recombinant human HDAC; read-out: IC50, Class IIa HDAC9
[7] = Table 8, recombinant human HDAC1, read-out: IC50 (nM) (HDAC1)
[8] = Table 9, recombinant human HDAC, read-out: IC50, Class I HDAC1

Chain of HDAC9 (Q9UKV0 whole entry, canonical isoform): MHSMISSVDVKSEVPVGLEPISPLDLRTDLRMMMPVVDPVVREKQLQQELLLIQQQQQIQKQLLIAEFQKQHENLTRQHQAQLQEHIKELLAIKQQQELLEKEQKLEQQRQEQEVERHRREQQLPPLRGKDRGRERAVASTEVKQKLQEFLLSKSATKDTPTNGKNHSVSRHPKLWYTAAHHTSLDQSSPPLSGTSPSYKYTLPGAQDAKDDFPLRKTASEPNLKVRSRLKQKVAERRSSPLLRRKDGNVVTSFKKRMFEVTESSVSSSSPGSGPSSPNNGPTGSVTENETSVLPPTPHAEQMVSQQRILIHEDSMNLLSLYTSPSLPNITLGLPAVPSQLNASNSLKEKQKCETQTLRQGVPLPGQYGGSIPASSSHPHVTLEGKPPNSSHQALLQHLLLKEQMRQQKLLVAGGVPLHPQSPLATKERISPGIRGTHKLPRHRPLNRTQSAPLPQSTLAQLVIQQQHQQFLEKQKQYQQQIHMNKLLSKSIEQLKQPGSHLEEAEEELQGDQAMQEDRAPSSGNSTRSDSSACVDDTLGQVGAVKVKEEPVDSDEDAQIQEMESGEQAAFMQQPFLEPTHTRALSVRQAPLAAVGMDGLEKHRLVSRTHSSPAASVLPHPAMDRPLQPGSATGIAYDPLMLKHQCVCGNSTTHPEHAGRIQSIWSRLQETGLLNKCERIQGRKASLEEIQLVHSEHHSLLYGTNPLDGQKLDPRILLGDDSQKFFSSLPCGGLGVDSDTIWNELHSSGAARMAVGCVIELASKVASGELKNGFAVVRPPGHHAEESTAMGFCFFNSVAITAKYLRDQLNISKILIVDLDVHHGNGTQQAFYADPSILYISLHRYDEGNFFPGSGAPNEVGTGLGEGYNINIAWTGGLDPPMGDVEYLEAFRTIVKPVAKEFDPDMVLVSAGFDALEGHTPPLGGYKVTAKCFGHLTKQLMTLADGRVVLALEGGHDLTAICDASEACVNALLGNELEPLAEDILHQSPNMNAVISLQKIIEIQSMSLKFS
T3 sequence (Q9UBN7 whole entry): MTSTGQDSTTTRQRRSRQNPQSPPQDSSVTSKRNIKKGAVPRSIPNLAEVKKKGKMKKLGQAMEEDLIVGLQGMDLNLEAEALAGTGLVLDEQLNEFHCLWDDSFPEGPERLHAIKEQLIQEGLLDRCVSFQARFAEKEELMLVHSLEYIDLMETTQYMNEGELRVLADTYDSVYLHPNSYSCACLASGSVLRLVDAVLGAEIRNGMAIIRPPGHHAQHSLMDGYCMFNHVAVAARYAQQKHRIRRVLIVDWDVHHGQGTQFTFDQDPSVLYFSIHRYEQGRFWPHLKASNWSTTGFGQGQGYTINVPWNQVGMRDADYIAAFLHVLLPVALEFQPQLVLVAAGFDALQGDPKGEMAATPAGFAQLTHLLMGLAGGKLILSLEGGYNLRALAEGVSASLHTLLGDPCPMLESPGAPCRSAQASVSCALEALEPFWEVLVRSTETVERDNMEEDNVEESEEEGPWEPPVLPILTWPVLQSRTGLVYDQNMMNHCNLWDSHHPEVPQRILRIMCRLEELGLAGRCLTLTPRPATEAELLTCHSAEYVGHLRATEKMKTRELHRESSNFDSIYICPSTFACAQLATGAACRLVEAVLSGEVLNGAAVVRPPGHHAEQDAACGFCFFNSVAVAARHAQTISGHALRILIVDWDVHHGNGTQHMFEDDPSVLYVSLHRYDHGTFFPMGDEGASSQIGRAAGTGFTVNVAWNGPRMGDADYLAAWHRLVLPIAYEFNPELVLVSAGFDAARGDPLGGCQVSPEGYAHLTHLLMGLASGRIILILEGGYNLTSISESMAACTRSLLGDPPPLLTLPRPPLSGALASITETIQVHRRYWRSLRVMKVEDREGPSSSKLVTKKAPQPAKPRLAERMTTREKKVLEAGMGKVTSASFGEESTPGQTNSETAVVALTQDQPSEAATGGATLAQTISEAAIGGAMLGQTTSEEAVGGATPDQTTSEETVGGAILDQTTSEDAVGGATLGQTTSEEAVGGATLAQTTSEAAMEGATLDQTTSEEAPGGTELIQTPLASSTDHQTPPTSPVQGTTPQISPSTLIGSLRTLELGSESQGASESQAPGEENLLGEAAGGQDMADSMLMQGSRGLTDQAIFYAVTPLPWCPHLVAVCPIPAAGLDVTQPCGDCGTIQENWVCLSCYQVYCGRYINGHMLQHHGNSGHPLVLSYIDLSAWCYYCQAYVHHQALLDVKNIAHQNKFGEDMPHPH
T1 sequence (Q13547 whole entry): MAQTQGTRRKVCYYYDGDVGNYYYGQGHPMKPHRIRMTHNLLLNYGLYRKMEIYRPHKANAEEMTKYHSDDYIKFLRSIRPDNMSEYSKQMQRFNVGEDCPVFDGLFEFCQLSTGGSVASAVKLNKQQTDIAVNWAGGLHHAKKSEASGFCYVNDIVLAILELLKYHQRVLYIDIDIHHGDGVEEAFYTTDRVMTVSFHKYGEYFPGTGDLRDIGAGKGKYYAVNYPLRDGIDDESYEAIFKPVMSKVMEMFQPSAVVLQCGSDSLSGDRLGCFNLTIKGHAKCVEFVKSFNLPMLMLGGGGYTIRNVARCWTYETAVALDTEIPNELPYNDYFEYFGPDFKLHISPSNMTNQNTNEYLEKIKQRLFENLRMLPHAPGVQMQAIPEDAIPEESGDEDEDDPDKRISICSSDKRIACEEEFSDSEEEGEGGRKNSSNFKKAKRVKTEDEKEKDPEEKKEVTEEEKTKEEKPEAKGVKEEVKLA
Chain of HDAC5 (Q9UQL6 whole entry, canonical isoform): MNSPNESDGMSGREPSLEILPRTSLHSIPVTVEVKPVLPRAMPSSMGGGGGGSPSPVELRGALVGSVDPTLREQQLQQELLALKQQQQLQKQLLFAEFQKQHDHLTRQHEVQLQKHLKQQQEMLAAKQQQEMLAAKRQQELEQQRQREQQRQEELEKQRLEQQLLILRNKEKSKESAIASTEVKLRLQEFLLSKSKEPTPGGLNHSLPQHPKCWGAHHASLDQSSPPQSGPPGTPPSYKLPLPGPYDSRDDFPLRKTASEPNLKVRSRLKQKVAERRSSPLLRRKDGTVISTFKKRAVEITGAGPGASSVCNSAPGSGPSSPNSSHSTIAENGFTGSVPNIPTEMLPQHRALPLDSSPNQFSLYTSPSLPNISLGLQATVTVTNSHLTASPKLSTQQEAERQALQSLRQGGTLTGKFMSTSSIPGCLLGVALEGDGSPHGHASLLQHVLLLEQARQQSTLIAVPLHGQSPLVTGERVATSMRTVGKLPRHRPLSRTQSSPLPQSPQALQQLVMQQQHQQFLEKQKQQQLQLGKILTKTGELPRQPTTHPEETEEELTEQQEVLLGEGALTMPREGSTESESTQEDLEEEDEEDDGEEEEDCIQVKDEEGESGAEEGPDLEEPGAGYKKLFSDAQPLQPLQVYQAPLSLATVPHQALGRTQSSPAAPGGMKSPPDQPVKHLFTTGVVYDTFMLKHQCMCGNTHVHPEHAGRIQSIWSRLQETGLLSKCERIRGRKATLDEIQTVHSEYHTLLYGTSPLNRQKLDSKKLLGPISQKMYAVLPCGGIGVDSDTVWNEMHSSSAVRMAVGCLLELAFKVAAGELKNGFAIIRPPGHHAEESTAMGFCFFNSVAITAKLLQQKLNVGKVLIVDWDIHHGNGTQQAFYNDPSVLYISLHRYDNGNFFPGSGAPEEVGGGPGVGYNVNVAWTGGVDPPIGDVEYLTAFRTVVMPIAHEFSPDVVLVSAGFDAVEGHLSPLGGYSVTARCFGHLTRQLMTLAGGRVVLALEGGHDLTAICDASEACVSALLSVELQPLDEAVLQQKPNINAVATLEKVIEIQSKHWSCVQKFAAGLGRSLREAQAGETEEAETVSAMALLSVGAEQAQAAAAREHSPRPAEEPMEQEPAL
T2 sequence (Q8WUI4 whole entry): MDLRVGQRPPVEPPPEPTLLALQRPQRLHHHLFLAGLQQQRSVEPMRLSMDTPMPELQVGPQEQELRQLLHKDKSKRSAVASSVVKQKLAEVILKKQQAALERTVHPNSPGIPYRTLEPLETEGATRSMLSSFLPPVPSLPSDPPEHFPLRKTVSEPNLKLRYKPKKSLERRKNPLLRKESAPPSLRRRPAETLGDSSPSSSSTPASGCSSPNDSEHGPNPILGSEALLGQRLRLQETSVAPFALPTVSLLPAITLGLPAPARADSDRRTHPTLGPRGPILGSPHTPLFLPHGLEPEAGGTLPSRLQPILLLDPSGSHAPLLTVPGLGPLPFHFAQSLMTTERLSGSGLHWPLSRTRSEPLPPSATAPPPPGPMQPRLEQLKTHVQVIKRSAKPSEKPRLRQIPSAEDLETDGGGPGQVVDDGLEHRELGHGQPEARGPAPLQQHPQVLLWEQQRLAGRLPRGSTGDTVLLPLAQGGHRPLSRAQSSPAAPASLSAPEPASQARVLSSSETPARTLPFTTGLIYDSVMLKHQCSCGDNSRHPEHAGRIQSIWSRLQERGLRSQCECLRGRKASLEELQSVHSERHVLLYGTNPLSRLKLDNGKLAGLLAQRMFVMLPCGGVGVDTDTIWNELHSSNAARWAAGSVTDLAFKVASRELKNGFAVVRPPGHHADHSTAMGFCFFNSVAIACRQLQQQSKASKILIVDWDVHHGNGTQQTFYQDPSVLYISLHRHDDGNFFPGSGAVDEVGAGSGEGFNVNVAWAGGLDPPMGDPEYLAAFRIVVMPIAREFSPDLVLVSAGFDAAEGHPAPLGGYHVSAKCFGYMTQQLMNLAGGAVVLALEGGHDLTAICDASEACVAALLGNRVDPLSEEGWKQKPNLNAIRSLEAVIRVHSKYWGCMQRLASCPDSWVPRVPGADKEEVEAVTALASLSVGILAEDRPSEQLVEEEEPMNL

Compound | IC50 [1, 7] [nM] | IC50 [2] [nM] | further results
CN(C)c1ccc(C2(C(=O)Nc3ccc(C(=O)NO)c(-c4ccccc4)c3)CCCC2)cc1 [Example 64] | > 10000 | 556 ± 317 | 
O=C(NO)c1ccc(CN2C(=O)c3cccc(F)c3C2=O)cc1-c1ccccc1 [Example 55] | 27000 |  | IC50 [1, 8]: 27000 nM; IC50 [3]: 4400 nM; IC50 [4]: 13 ± 3 nM; IC50 [5]: 16 ± 2 nM; IC50 [6]: 183 ± 102 nM
O=C(NO)c1ccc(CN2C(=O)c3ccccc3S2(=O)=O)cc1-c1ccccc1 [Example 56] | 4900 |  | IC50 [1, 8]: 4900 nM; IC50 [3]: 5500 nM; IC50 [4]: 48 ± 6 nM; IC50 [5]: 8 ± 1 nM; IC50 [6]: 93 ± 44 nM
CCc1nc2ccccc2c(=O)n1Cc1ccc(C(=O)NO)c(-c2ccccc2)c1 [Example 35] | 5280 ± 3490 |  | 
O=C(NO)c1ccc(NC(=O)C2(c3ccc(Br)cc3)CCCC2)cc1-c1ccccc1 [Example 65] | 4900 ± 1710 | 1210 ± 700 | 
O=C(NO)c1ccc(CN2C(=O)c3ccccc3C2=O)cc1-c1ccccc1 [Example 36] | 32000 |  | IC50 [1, 8]: 32000 nM; IC50 [3]: 5700 nM; IC50 [4]: 28 ± 4 nM; IC50 [5]: 12 ± 2 nM; IC50 [6]: 133 ± 52 nM
O=C(NO)c1ccc(CN2Cc3ccccc3C2=O)cc1-c1ccccc1 [Example 49] | 33000 |  | 
O=C(NO)c1ccc(Nc2ccccn2)cc1-c1ccccc1 [Example 82] |  | 249 | 
O=C(NO)c1ccc(Cn2cnc3ccccc3c2=O)cc1-c1ccccc1 [Example 34] | 3190 ± 816 |  | 
CONC(=O)c1ccc(Cn2c(C)nc3ccccc3c2=O)cc1-c1ccccc1 [Example 101] |  | ≥ 10000 | 
Nc1ccc(C(=O)NO)c(-c2ccccc2)c1 [Example 99] |  | 945 | 
O=C(NO)c1ccc(Nc2ccc(-c3ccccc3)cc2)cc1-c1ccccc1 [Example 72] |  | > 10000 | 
O=C(NO)c1ccc(Nc2cnccn2)cc1-c1ccccc1 [Example 84] |  | 233 ± 95 | 
O=C(NO)c1ccc(Nc2cc(F)c(F)c(F)c2)cc1-c1ccccc1 [Example 70] |  | 649 | 
O=C(NO)c1ccc(Nc2ccccc2)cc1-c1ccccc1 [Example 66] |  | 94 | 
O=C(NO)c1ccc(NC(=O)C2(C(=O)Nc3ccccc3)CCCC2)cc1-c1ccccc1 [Example 89] |  | 243 | 
Cc1nc2ccccc2c(=O)n1Cc1ccc(C(=O)N(C)O)c(-c2ccccc2)c1 [Example 100] |  | ≥ 10000 | 
NC(=O)c1ccc(Nc2ccc(C(=O)NO)c(-c3ccccc3)c2)cc1 [Example 79] | > 10000 | 43 ± 9 | 

Compound | IC50 [1, 7] [nM] | IC50 [2] [nM] | further results
Cc1cc(F)ccc1-c1cc(Cn2c(C)nc3ccccc3c2=O)ccc1C(=O)NO [Example 13] | 4210 ± 1760 | 12 ± 1.2 | 
CC1C(=O)N(C2CCCCC2)C(=O)N1Cc1ccc(C(=O)NO)c(-c2ccccc2)c1 (stereo not drawn) [Example 98] |  | 100 ± 18 | 
O=C(NO)c1ccc(CN2C(=O)CCC2=O)cc1-c1ccccc1 [Example 51] | > 20000 |  | 
O=C(NO)c1ccc(Nc2ccc3ccccc3c2)cc1-c1ccccc1 [Example 73] |  | 321 | 
CC(C)C(C(=O)Nc1ccc(C(=O)NO)c(-c2ccccc2)c1)c1ccccc1 (stereo not drawn) [Example 59] | > 10000 | 555 ± 334 | 
O=C(NO)c1ccc(Nc2cc(F)cc(F)c2)cc1-c1ccccc1 [Example 71] |  | 206 | 
COc1ccc(Nc2ccc(C(=O)NO)c(-c3ccccc3)c2)cc1 [Example 77] |  | 61 ± 9 | 
O=C(NO)c1ccc(CN2C(=O)c3ccncc3C2=O)cc1-c1ccccc1 [Example 54] | > 20000 |  | 
O=C(NO)c1ccc(NC(=O)C2(C(=O)Nc3ccccc3)CCCCC2)cc1-c1ccccc1 [Example 90] |  | 168 | 
O=C(NO)c1ccc(Cn2c(=O)cc[nH]c2=O)cc1-c1ccccc1 [Example 38] | > 10000 |  | 
O=C(NO)c1ccc(CNC(=O)C2CCCN2)cc1-c1ccccc1 (stereo not drawn) [Example 27] |  | 960 ± 225 | 
O=C(Nc1ccc(C(=O)NO)c(-c2ccccc2)c1)c1ccccc1 [Example 60] |  | 325 | 
O=C(NO)c1ccc(C(n2cc(-c3ccccc3)nn2)n2cc(-c3ccccc3)nn2)cc1-c1ccccc1 [Example 58] |  | 5 ± 1 | 
O=C(NO)c1ccc(NC(=O)C2(c3c[nH]c(-c4ccc([N+](=O)[O-])cc4)n3)CCCC2)cc1-c1ccccc1 [Example 85] |  | 625 ± 318 | 
O=C(Nc1ccccc1)Nc1ccc(C(=O)NO)c(-c2ccccc2)c1 [Example 86] |  | 248 | 
O=C(NO)c1ccc(Nc2ncccn2)cc1-c1ccccc1 [Example 83] |  | 447 ± 177 | 
Cc1cc(=O)n(Cc2ccc(C(=O)NO)c(-c3ccccc3)c2)c(C)n1 [Example 45] | > 10000 |  | 

Further lines, with some results ahead:

IC50 [1, 7] [nM] | IC50 [2] [nM] | Compound | further results
> 10000 | 81 ± 14 | O=C(NCc1ccc(C(=O)NO)c(-c2ccccc2)c1)c1ccc[nH]1 [Example 23] | 
3200 | 6.4 ± 0.8 | Cc1nc2ccccc2c(=O)n1Cc1ccc(C(=O)NO)c(-c2ccc(F)cc2)c1 [Example 14] | IC50 [3]: 1300 ± 480 nM; IC50 [4]: 22 ± 3 nM; IC50 [5]: 8 ± 1 nM; IC50 [6]: 15 ± 3 nM
2520 ± 1340 | > 10000 | O=C(NCc1ccc(C(=O)NO)c(Oc2ccccc2)c1)Nc1cccc2cccnc12 [Example 3, 2-phenoxy-N-hydroxy-4-((3-(quinolin-8-yl)ureido)methyl)benzamide, reference compound] | 
28000 |  | O=C(NO)c1ccc(CN2C(=O)c3cccnc3C2=O)cc1-c1ccccc1 [Example 53] | 
2360 ± 452 | 214 ± 54 | O=C(NCc1ccc(C(=O)NO)c(-c2ccccc2)c1)Nc1cccc2cccnc12 [Example 2] | 
> 10000 | 59 ± 10 | O=C(NCc1ccc(C(=O)NO)c(-c2ccccc2)c1)c1cc2ccccc2[nH]1 [Example 24] | 
 | > 10000 | COc1cccc(-c2cc(CNC(=O)Nc3cccc4cccnc34)ccc2C(=O)NO)c1 [Example 103] | 
 | 886 ± 192 | O=C(NCc1ccc(C(=O)NO)c(-c2cccc(Cl)c2)c1)Nc1cccc2cccnc12 [Example 8] | 
 | 205 ± 47 | O=C(NCc1ccc(C(=O)NO)c(-c2ccccc2)c1)c1ccncc1 [Example 18] | 
 | 108 ± 34 | O=C(NCc1ccc(C(=O)NO)c(-c2ccccc2)c1)c1ccccn1 [Example 16] | 
 | 645 | O=C(Nc1ccc(C(=O)NO)c(-c2ccccc2)c1)c1ccc(F)cc1 [Example 61] | 
 | 118 ± 21 | O=C(NCc1ccc(C(=O)NO)c(-c2ccc(F)cc2)c1)Nc1cccc2cccnc12 [Example 6] | 
 | 123 ± 39 | O=C(NCc1ccc(C(=O)NO)c(-c2ccccc2)c1)c1ccccc1 [Example 15] | 
 | > 10000 | O=C(NCc1ccc(C(=O)NO)c(-c2cn[nH]c2)c1)Nc1cccc2cccnc12 [Example 104] | 
 | 78 ± 21 | CC(=O)Nc1cccc(C(=O)NCc2ccc(C(=O)NO)c(-c3ccccc3)c2)c1 [Example 19] | 
 | 165 ± 45 | O=C(NCc1ccc(C(=O)NO)c(-c2ccccc2)c1)c1cnc[nH]1 [Example 94] | 
 | 178 ± 47 | O=C(NCc1ccc(C(=O)NO)c(-c2ccccc2Cl)c1)Nc1cccc2cccnc12 [Example 7] | 
16000 |  | O=C(NCc1ccc(C(=O)NO)c(-c2ccccc2)c1)c1ccccc1F [Example 50] | 
3840 ± 1630 | > 10000 | O=C(NCc1ccc(C(=O)NO)c(Br)c1)Nc1cccc2cccnc12 [Example 1, 2-bromo-N-hydroxy-4-((3-(quinolin-8-yl)ureido)methyl)benzamide, reference compound] | 
 | 64 ± 10 | CN(c1ccc(F)cc1)c1ccc(C(=O)NO)c(-c2ccccc2)c1 [Example 81] | 
 | 125 ± 26 | Cc1ccccc1-c1cc(CNC(=O)Nc2cccc3cccnc23)ccc1C(=O)NO [Example 9] | 
 | > 10000 | COc1ccc(-c2cc(CNC(=O)Nc3cccc4cccnc34)ccc2C(=O)NO)cc1 [Example 102] | 
 | 1890 ± 431 | Cc1ccc(-c2cc(CNC(=O)Nc3cccc4cccnc34)ccc2C(=O)NO)cc1 [Example 11] | 
 | 152 ± 40 | O=C(NCc1ccc(C(=O)NO)c(-c2ccccc2F)c1)Nc1cccc2cccnc12 [Example 4] | 
 | 151 ± 52 | O=C(NCc1ccc(C(=O)NO)c(-c2ccccc2)c1)c1cccnc1 [Example 17] | 
